In patent publication US20130136809A1, “7-HYRDROXYFRULLANOLIDE ITS ANALOGS FOR PREVENTION CONTROL AND TREATMENT OF METABOLIC DISORDERS” (LAILA NUTRACEUTICALS, priority 2009, published 2013):

Key:
[1] = system: 3T3-L1 pre-adipocyte cells; assay: Pro-lipolytic activity in differentiated adipocytes (free glycerol release); format: cell-based, mouse; settings: 5 μg/mL; increase in glycerol release
Protocol: The lipolytic activity was assessed in mature adipocytes as per the procedure of Chemicon International, USA, by measuring free glycerol secreted into the culture medium. One hundred thousand 3T3-L1 […] pre-adipocyte cells in Dulbecco's Modified Eagles Medium (DMEM) containing 10% Fetal Bovine Serum (FBS) were taken into each well of a 24-well plate and incubated for 48 h at 37° C. and 5% CO2. The differentiation of pre-adipocyte cells was initiated in a differentiation medium containing 10 µg/ml insulin, 1.0 µM dexamethasone, and 0.5 mM isobutylmethylxanthine (IBMX). The cells were differentiated for 5 days and then the culture medium was removed. The monolayer was washed twice with wash solution (Hank's balanced salt solution), and then 250 µL of incubation solution (Hank's balanced salt solution plus 2% bovine serum albumin) was added to the wells in triplicate in presence or absence of 7-hydroxyfrullanolide or its analogs or the extracts containing 7-HF, and the cells were further incubated for 16 h. To measure lipolysis, 200 μL of free glycerol assay reagent was added to 25 µL of culture supernatants and controls containing glycerol standard. The samples and the controls were incubated for 15 min, and the absorbance was read at 540 nm. A standard curve constructed from the glycerol was used to calculate the concentration of free glycerol in the culture supernatants. The percentage increase in glycerol concentration in the sample solutions compared to the control containing the known concentrations of glycerol corresponds to the percentage acceleration of lipolysis by test compound.

[2] = system: CD36; assay: Immunoblot of CD36 expression in high glucose induced J774 macrophage cells; format: cell-based, mouse; settings: 1 μg/ml; 600 mg/dL glucose, 5 days
Protocol: Experimental protocol: This was evaluated in glucose induced J774, mouse macrophage cells. Briefly, the cells were cultured in DMEM with 2 mM Glutamine, 100 U/mL penicillin, […] streptomycin and 10% fetal bovine serum (Hyclone, Logan, Utah). Equal number of cells was seeded into 35 mm petri dishes (Corning, USA) one day before the experiment. The culture media was replaced with fresh, glucose free DMEM supplemented with 10% fetal bovine serum. 7-HF was diluted at […] and all cultures were pre-incubated for 2 hours at 5% CO2 at 37° C., and then incubated with 600 mg/dL of glucose for 5 days. Representative photomicrographs showing inhibition of lipid accumulation by 7-HF in high glucose induced macrophage cells of an in vitro model of atherosclerosis are shown in Figure IV. The control culture was supplemented with 100 mg/dL glucose. […] Protein concentration was measured by Bradford method.
Inhibition of CD36 protein expression in high glucose induced J774 macrophage cells in presence or absence of 7-HF was evaluated in immunoblot assay. […] Finally, the specific immuno-reactive bands were developed with West-pico chemiluminescent substrate (Pierce Biotechnology, IL, USA), and the immunoblot images were recorded in a Kodak Image Station (Kodak, USA). Band intensities were calculated densitometrically and normalized with expression of actin in respective samples.

[3] = system: human endothelial cells; assay: Nitrite assay (Griess reagent), nitric oxide production; format: cell-based; settings: 0.1, 0.25, 0.50, 1.00 ng/ml; 24 h
Protocol: Equal number (5000 cells) of human endothelial cells was plated in each well of a 96-well cell culture plate. The cells were treated with various concentrations (0.1, 0.25, 0.5 and 1.0 ng/ml) of 7-HF for 24 h. The control cultures received 0.01% (v/v) DMSO as the vehicle. After 24 h, the culture supernatants were collected and mixed with equal volume of Griess reagent [1:1 mixture of NED solution (0.1% N-1-napthylethulenediamine dihydrochloride in water) and Sulfanylamide solution (1% sulfanilamide in 5% phosphoric acid)]. The reaction was allowed for 10 min at room temperature. Finally, the color reaction was read at 550 nm in a micro-plate reader (BioRad, USA). Known concentrations of sodium nitrite were reacted to obtain a standard curve. Modulation of nitrite production in 7-HF treated cultures was quantitatively assessed by extrapolating the absorbance readings obtained from the test samples into the standard plot.

C=C1C(=O)O[C@H]2C3=C(C)CCC[C@]3(C)CC[C@@]12O [7-HF (1), 7-hydroxyfrullanolide]
% acceleration of lipolysis [1]: 47.8% | CD36 levels in high glucose induced macrophage cells [2]: reduced back towards their base values | NO concentration (nitrite) in cell culture supernatant [3]: significant and dose dependent increase
